Assays:
Assay type in all cases: cell-based
UACC-257 = assay: NCI 60 screen, UACC-257; details: Homo sapiens, Melanoma
Experimental: (§1) The compounds synthesized were tested at the National Cancer Institute (NCI) for anti-proliferative activity in the 60 human tumor cell line assay.

PC-3 = assay: NCI 60 screen, PC-3; details: Homo sapiens, Prostatic
Experimental: as §1

HCT15 = assay: NCI 60 screen, HCT15; details: Homo sapiens, HCT-15, Colon
Experimental: as §1

HL-60(TB) = assay: NCI 60 screen, HL-60(TB); details: Homo sapiens, Leukemia
Experimental: as §1

SK-MEL-2 = assay: NCI 60 screen, SK-MEL-2 (second line); details: Homo sapiens; Melanoma, SK-MEL-2 (second of two lines so named, r38)
Experimental: as §1

HeLa cells = assay: Mitotic arrest of HeLa cells observed under the microscope; details: 10 μM
Experimental: FIG. 6: Color images showing untreated HeLa cells used as a control. Mitotic duration: 60 minutes. Each frame was taken after 12 minute intervals. Frame 5 to frame 9 show cells' progression through mitosis.
FIG. 7: Color images showing HeLa cells treated with 10 μM of compound 25. Mitotic duration: 27.4 hr.
Although developed as HDAC inhibitors, the compounds herein may actually act by multiple mechanisms. […] Snap shots were taken at a 12 minute interval.
A cell that is rounded up in frame 2 enters mitosis (FIG. 7).

NCI-H522 = assay: NCI 60 screen, NCI-H522; details: Homo sapiens, Non-Small Cell Lung
Experimental: as §1

A549/ATCC = assay: NCI 60 screen, A549/ATCC; details: Homo sapiens, Non-Small Cell Lung
Experimental: as §1

OVCAR-8 = assay: NCI 60 screen, OVCAR-8; details: Homo sapiens, Ovarian
Experimental: as §1

SK-MEL-5 = assay: NCI 60 screen, SK-MEL-5; details: Homo sapiens, Melanoma
Experimental: as §1

NCI-H226 = assay: NCI 60 screen, NCI-H226; details: Homo sapiens, Non-Small Cell Lung
Experimental: as §1

SNB-19 = assay: NCI 60 screen, SNB-19; details: Homo sapiens, CNS
Experimental: as §1

MDA-MB-435 = assay: NCI 60 screen, MDA-MB-435; details: Homo sapiens, Melanoma
Experimental: as §1

NCI/ADR-RES = assay: NCI 60 screen, NCI/ADR-RES; details: Homo sapiens, Ovarian
Experimental: as §1

MDA-MB-468 = assay: NCI 60 screen, MDA-MB-468; details: Homo sapiens, Breast
Experimental: as §1

SF-539 = assay: NCI 60 screen, SF-539; details: Homo sapiens, CNS
Experimental: as §1

SNB-75 = assay: NCI 60 screen, SNB-75; details: Homo sapiens, CNS
Experimental: as §1

COLO 205 = assay: NCI 60 screen, COLO 205; details: Homo sapiens, Colon
Experimental: as §1

RXF393 = assay: NCI 60 screen, RXF393; details: Homo sapiens, RXF 393, Renal
Experimental: as §1

786-0 = assay: NCI 60 screen, 786-0; details: Homo sapiens, Renal
Experimental: as §1

HS 578T = assay: NCI 60 screen, HS 578T; details: Homo sapiens, Breast
Experimental: as §1

DU-145 = assay: NCI 60 screen, DU-145; details: Homo sapiens, Prostatic
Experimental: as §1

HCC-2998 = assay: NCI 60 screen, HCC-2998; details: Homo sapiens, Colon
Experimental: as §1

RPMI-8226 = assay: NCI 60 screen, RPMI-8226; details: Homo sapiens, Leukemia
Experimental: as §1

OVCAR-5 = assay: NCI 60 screen, OVCAR-5; details: Homo sapiens, Ovarian
Experimental: as §1

OVCAR-3 = assay: NCI 60 screen, OVCAR-3; details: Homo sapiens, Ovarian
Experimental: as §1

MCF7 = assay: NCI 60 screen, MCF7; details: Homo sapiens, Breast
Experimental: as §1

HOP-92 = assay: NCI 60 screen, HOP-92; details: Homo sapiens, Non-Small Cell Lung
Experimental: as §1

TK-10 = assay: NCI 60 screen, TK-10; details: Homo sapiens, Renal
Experimental: as §1

HT29 = assay: NCI 60 screen, HT29; details: Homo sapiens, HT-29, Colon
Experimental: as §1

CCRF-CEM = assay: NCI 60 screen, CCRF-CEM; details: Homo sapiens, Leukemia
Experimental: as §1

A498 = assay: NCI 60 screen, A498; details: Homo sapiens, Renal
Experimental: as §1

[1] = tested on: chromosome alignment, centromeres, and spindle body; assay: Fluorescence microscopy of chromosome alignment, centromeres and spindle body; details: FIGS. 8A-8B
Text: FIGS. 8A-8B: Color images showing effects of compound 25 on chromosome alignment, centromeres, and spindle body. Microtubules that make up the mitotic spindle are detected with an antibody linked to a green fluorophore, which was detected with a fluorescence microscope. Centromeres were detected with a far red fluorophore (they are pseudocolored pink). DNA was detected with Hoechst DNA stain, which is blue.
In normal cells (FIG. 8A, upper two panels), chromosomes line up between the spindle poles at metaphase. In cells treated with compound 25 for several hours (FIG. 8A, lower two panels), cells still enter mitosis but centromeres are found all over the cell (not just in the middle between the poles of the spindle). […] However, when ZM is combined with compound 25, what was observed was a very dramatic disruption of spindle architecture. […] Without wishing to be bound by theory, it is believed that both Aurora B and the targets of compound 25 work in parallel to control tubulin function. When either one is inhibited alone, there is no effect since the other pathway compensates. When both are inhibited, the defect is detected.

MDA-MB-231/ATCC = assay: NCI 60 screen, MDA-MB-231/ATCC; details: Homo sapiens, Breast
Experimental: as §1

SR = assay: NCI 60 screen, SR; details: Homo sapiens, Leukemia
Experimental: as §1

LOX IMVI = assay: NCI 60 screen, LOX IMVI; details: Homo sapiens, Melanoma
Experimental: as §1

HCT-116 = assay: NCI 60 screen, HCT-116; details: Homo sapiens, Colon
Experimental: as §1

CAKI-1 = assay: NCI 60 screen, CAKI-1; details: Homo sapiens, Renal
Experimental: as §1

EKVX = assay: NCI 60 screen, EKVX; details: Homo sapiens, Non-Small Cell Lung
Experimental: as §1

KM12 = assay: NCI 60 screen, KM12; details: Homo sapiens, Colon
Experimental: as §1

Compound: O=C(Cc1ccc(/C=C/C(=O)c2ncc[nH]2)cc1)Nc1ccc(Cl)cc1 [Compound 25, (E)-2-(-4 (3-(1H-imidazol-2-yl)-3-oxoprop-1-en-1-yl)phenyl)-N-(4-chlorophenyl)acetamide]
- GI50 (UACC-257): 7.24 µM
- GI50 (PC-3): 2.39 µM
- GI50 (HCT15): 0.879 µM
- GI50 (HL-60(TB)): 3.8 µM
- GI50 (SK-MEL-2): 4.81 µM
- Fate of arrested cells (HeLa cells): eventually underwent apoptosis
- Mitotic arrest (progress through cell division) (HeLa cells; monitored for over 27.4 hours): did not proceed with cell division
- Mitotic duration (HeLa cells; untreated control 60 minutes): 27.4 h
- GI50 (NCI-H522): 2.6 µM
- GI50 (A549/ATCC): 6.9 µM
- GI50 (OVCAR-8): 3.65 µM
- GI50 (SK-MEL-5): 6.17 µM
- GI50 (NCI-H226): 7.5 µM
- GI50 (SNB-19): 2.32 µM
- GI50 (MDA-MB-435): 4.14 µM
- GI50 (NCI/ADR-RES): 5.02 µM
- GI50 (MDA-MB-468): 1.68 µM
- GI50 (SF-539): 3.33 µM
- GI50 (SNB-75): 3.63 µM
- GI50 (COLO 205): 3.01 µM
- GI50 (RXF393): 3.05 µM
- GI50 (786-0): 1.13 µM
- GI50 (HS 578T): 18.8 µM
- GI50 (DU-145): 1.7 µM
- GI50 (HCC-2998): 3.73 µM
- GI50 (RPMI-8226): 0.857 µM
- GI50 (OVCAR-5): 3.3 µM
- GI50 (OVCAR-3): 1.14 µM
- GI50 (MCF7): 0.742 µM
- GI50 (HOP-92): 5.74 µM
- GI50 (TK-10): 5.41 µM
- GI50 (HT29): 0.886 µM
- GI50 (CCRF-CEM): 1.08 µM
- GI50 (A498): 5.48 µM
- Spindle body / spindle architecture [1]: the spindle body remained intact
- Chromosome alignment / centromere position ([1]; cells treated for several hours): chromosomes were misaligned
- GI50 (MDA-MB-231/ATCC): 4.27 µM
- GI50 (SR): 0.798 µM
- GI50 (LOX IMVI): 0.87 µM
- GI50 (HCT-116): 0.848 µM
- GI50 (CAKI-1): 4.88 µM
- GI50 (EKVX): 5.68 µM
- GI50 (KM12): 1.3 µM

Reference: patent US11098038B2, “Imidazole-based anticancer agents and derivatives thereof, and methods of making and using same” (The University of Toledo, priority 2017, dated 2021)
